Measured values taken from PubChem BioAssay (NCI).
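The concentration for 50% growth inhibition is given as GI50. TGI marks complete inhibition of growth.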

Experiments:
Test in all cases: DTP human tumour cell line panel, 384-well format
786-0 renal = system: 786-0 renal
A498 renal = system: A498 renal
A549 NSCLC = system: A549 NSCLC
ACHN renal = system: ACHN renal
BT-549 breast = system: BT-549 breast
CAKI-1 renal = system: CAKI-1 renal
CCRF-CEM leukemia = system: CCRF-CEM leukemia
COLO 205 colon = system: COLO 205 colon
DU-145 prostate = system: DU-145 prostate
EKVX NSCLC = system: EKVX NSCLC
HCC-2998 colon = system: HCC-2998 colon
HCT-116 colon = system: HCT-116 colon
HCT-15 colon = system: HCT-15 colon
HL-60(TB) leukemia = system: HL-60(TB) leukemia
HOP-62 NSCLC = system: HOP-62 NSCLC
HOP-92 NSCLC = system: HOP-92 NSCLC
HT29 colon = system: HT29 colon
IGROV1 ovarian = system: IGROV1 ovarian
K-562 leukemia = system: K-562 leukemia
KM12 colon = system: KM12 colon
LOX IMVI melanoma = system: LOX IMVI melanoma
M14 melanoma = system: M14 melanoma
MALME-3M melanoma = system: MALME-3M melanoma
MCF7 breast = system: MCF7 breast
MDA-MB-231 breast = system: MDA-MB-231 breast
MDA-MB-435 melanoma = system: MDA-MB-435 melanoma
MDA-MB-468 breast = system: MDA-MB-468 breast
MOLT-4 leukemia = system: MOLT-4 leukemia
NCI-H226 lung = system: NCI-H226 lung
NCI-H23 lung = system: NCI-H23 lung
NCI-H322M lung = system: NCI-H322M lung
NCI-H460 NSCLC = system: NCI-H460 NSCLC
NCI-H522 lung = system: NCI-H522 lung
NCI/ADR-RES ovarian = system: NCI/ADR-RES ovarian
OVCAR-3 ovarian = system: OVCAR-3 ovarian
OVCAR-4 ovarian = system: OVCAR-4 ovarian
OVCAR-5 ovarian = system: OVCAR-5 ovarian
OVCAR-8 ovarian = system: OVCAR-8 ovarian
PC-3 prostate = system: PC-3 prostate
RPMI-8226 leukemia = system: RPMI-8226 leukemia
RXF 393 renal = system: RXF 393 renal
SF-268 CNS = system: SF-268 CNS
SF-295 CNS = system: SF-295 CNS
SF-539 CNS = system: SF-539 CNS
SK-MEL-2 melanoma = system: SK-MEL-2 melanoma
SK-MEL-28 melanoma = system: SK-MEL-28 melanoma
SK-MEL-5 melanoma = system: SK-MEL-5 melanoma
SK-OV-3 ovarian = system: SK-OV-3 ovarian
SN12C renal = system: SN12C renal
SNB-19 CNS = system: SNB-19 CNS
SNB-75 CNS = system: SNB-75 CNS
SR leukemia = system: SR leukemia
SW-620 colon = system: SW-620 colon
T-47D breast = system: T-47D breast
TK-10 renal = system: TK-10 renal
U251 glioblastoma = system: U251 glioblastoma
UACC-257 melanoma = system: UACC-257 melanoma
UACC-62 melanoma = system: UACC-62 melanoma
UO-31 renal = system: UO-31 renal

CC(C)Oc1ccc(-c2nn([C@@H](C)c3oc4ccc(F)cc4c(=O)c3-c3cccc(F)c3)c3ncnc(N)c23)cc1F
GI50 ([…]-0 renal): 26.2 µM
TGI (786-0 renal): > 100 µM
GI50 (A498 renal): 8.65 µM
TGI (A498 renal): > 100 µM
GI50 (A549 NSCLC): 11.1 µM
TGI (A549 NSCLC): > 100 µM
GI50 (ACHN renal): > 86.8 µM
TGI (ACHN renal): > 100 µM
GI50 (BT-549 breast): 10.3 µM
TGI (BT-549 breast): > 100 µM
GI50 (CAKI-1 renal): > 100 µM
TGI (CAKI-1 renal): > 100 µM
GI50 (CCRF-CEM leukemia): 3.62 µM
TGI (CCRF-CEM leukemia): > 83.9 µM
GI50 (COLO 205 colon): > 100 µM
TGI (COLO 205 colon): > 100 µM
GI50 (DU-145 prostate): > 100 µM
TGI (DU-145 prostate): > 100 µM
GI50 (EKVX NSCLC): > 100 µM
TGI (EKVX NSCLC): > 100 µM
GI50 (HCC-2998 colon): > 100 µM
TGI (HCC-2998 colon): > 100 µM
GI50 (HCT-116 colon): 13.9 µM
TGI (HCT-116 colon): > 100 µM
GI50 (HCT-15 colon): 32.5 µM
TGI (HCT-15 colon): > 100 µM
GI50 (HL-60(TB) leukemia): 5.31 µM
TGI (HL-60(TB) leukemia): > 36 µM
GI50 (HOP-62 NSCLC): > 100 µM
TGI (HOP-62 NSCLC): > 100 µM
GI50 (HOP-92 NSCLC): 8.09 µM
TGI (HOP-92 NSCLC): > 80.9 µM
GI50 (HT29 colon): > 100 µM
TGI (HT29 colon): > 100 µM
GI50 (IGROV1 ovarian): > 100 µM
TGI (IGROV1 ovarian): > 100 µM
GI50 (K-562 leukemia): 5.18 µM
TGI (K-562 leukemia): > 100 µM
GI50 (KM12 colon): > 100 µM
TGI (KM12 colon): > 100 µM
GI50 (LOX IMVI melanoma): > 100 µM
TGI (LOX IMVI melanoma): > 100 µM
GI50 (M14 melanoma): > 100 µM
TGI (M14 melanoma): > 100 µM
GI50 (MALME-3M melanoma): > 100 µM
TGI (MALME-3M melanoma): > 100 µM
GI50 (MCF7 breast): 9.51 µM
TGI (MCF7 breast): > 100 µM
GI50 (MDA-MB-231 breast): 9.94 µM
TGI (MDA-MB-231 breast): > 100 µM
GI50 (MDA-MB-435 melanoma): > 100 µM
TGI (MDA-MB-435 melanoma): > 100 µM
GI50 (MDA-MB-468 breast): 5.71 µM
TGI (MDA-MB-468 breast): > 83.7 µM
GI50 (MOLT-4 leukemia): 3.51 µM
TGI (MOLT-4 leukemia): > 100 µM
GI50 (NCI-H226 lung): 51.5 µM
TGI (NCI-H226 lung): > 100 µM
GI50 (NCI-H23 lung): 38.5 µM
TGI (NCI-H23 lung): > 100 µM
GI50 (NCI-H322M lung): > 100 µM
TGI (NCI-H322M lung): > 100 µM
GI50 (NCI-H460 NSCLC): 10.5 µM
TGI (NCI-H460 NSCLC): > 100 µM
GI50 (NCI-H522 lung): 12.9 µM
TGI (NCI-H522 lung): > 100 µM
GI50 (NCI/ADR-RES ovarian): 19.5 µM
TGI (NCI/ADR-RES ovarian): > 100 µM
GI50 (OVCAR-3 ovarian): 12.1 µM
TGI (OVCAR-3 ovarian): > 100 µM
GI50 (OVCAR-4 ovarian): 6.49 µM
TGI (OVCAR-4 ovarian): > 100 µM
GI50 (OVCAR-5 ovarian): > 100 µM
TGI (OVCAR-5 ovarian): > 100 µM
GI50 (OVCAR-8 ovarian): 11.8 µM
TGI (OVCAR-8 ovarian): > 100 µM
GI50 (PC-3 prostate): 7.27 µM
TGI (PC-3 prostate): > 100 µM
GI50 (RPMI-8226 leukemia): 3.34 µM
TGI (RPMI-8226 leukemia): 9.04 µM
GI50 (RXF 393 renal): 2.45 µM
TGI (RXF 393 renal): 11.5 µM
GI50 (SF-268 CNS): > 100 µM
TGI (SF-268 CNS): > 100 µM
GI50 (SF-295 CNS): > 100 µM
TGI (SF-295 CNS): > 100 µM
GI50 (SF-539 CNS): 20.3 µM
TGI (SF-539 CNS): > 100 µM
GI50 (SK-MEL-2 melanoma): > 100 µM
TGI (SK-MEL-2 melanoma): > 100 µM
GI50 (SK-MEL-28 melanoma): > 100 µM
TGI (SK-MEL-28 melanoma): > 100 µM
GI50 (SK-MEL-5 melanoma): > 29.3 µM
TGI (SK-MEL-5 melanoma): > 100 µM
GI50 (SK-OV-3 ovarian): > 100 µM
TGI (SK-OV-3 ovarian): > 100 µM
GI50 (SN12C renal): > 100 µM
TGI (SN12C renal): > 100 µM
GI50 (SNB-19 CNS): > 100 µM
TGI (SNB-19 CNS): > 100 µM
GI50 (SNB-75 CNS): 33.5 µM
TGI (SNB-75 CNS): > 100 µM
GI50 (SR leukemia): 2.84 µM
TGI (SR leukemia): 14.9 µM
GI50 (SW-620 colon): > 90.1 µM
TGI (SW-620 colon): > 100 µM
GI50 (T-47D breast): 6.03 µM
TGI (T-47D breast): > 100 µM
GI50 (TK-10 renal): > 100 µM
TGI (TK-10 renal): > 100 µM
GI50 (U251 glioblastoma): 88.8 µM
TGI (U251 glioblastoma): > 100 µM
GI50 (UACC-257 melanoma): > 100 µM
TGI (UACC-257 melanoma): > 100 µM
GI50 (UACC-62 melanoma): > 100 µM
TGI (UACC-62 melanoma): > 100 µM
GI50 (UO-31 renal): 1.94 µM
TGI (UO-31 renal): 7.54 µM
